Patent US9302999B2, “Substituted triazoles as herbicides” (E. I. DU PONT DE NEMOURS AND COMPANY, priority 2012, dated 2016)

Experiments:
Format in all cases: in vivo
rice (Oryza sativa) = experiment: Test B flooded paddy: rice; conditions: Flood; 250 g ai/ha; applied to paddy water at 2-leaf stage; visually evaluated after 13 to 15 days
Method: Seeds selected from rice (Oryza sativa), sedge, umbrella (small-flower umbrella sedge Cyperus difformis), ducksalad (Heteranthera limosa), and barnyardgrass (Echinochloa crus-galli) were grown to the 2-leaf stage for testing. At time of treatment, test pots were flooded to 3 cm above the soil surface, treated by application of test compounds directly to the paddy water, and then maintained at that water depth for the duration of the test.
Treated plants and controls were maintained in a greenhouse for 13 to 15 days, after which time all species were compared to controls and visually evaluated. Plant response ratings, summarized in Table B, are based on a scale of 0 to 100 where 0 is no effect and 100 is complete control. A dash (-) response means no test result.

corn (Zea mays) = experiment: Test A pre-/postemergence: corn; conditions: for Corn plant response rating: Postemergence; for Plant response rating, Corn: Preemergence
Procedure, shortened: (§1)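 Soil medium was loam blended with sand; treatments pre- and postemergence were applied concurrently, postemergence at one- to two-leaf stage. Approximately ten days in greenhouse preceded visual comparison with untreated controls, scored 0 (no effect) to 100 (complete control).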

[1] = tested on: foxtail, giant (giant foxtail, Setaria faberii); experiment: Test A pre-/postemergence: foxtail, giant; conditions: for Foxtail, Giant plant response rating: Postemergence; for Plant response rating, Foxtail, Giant: Preemergence
Procedure, shortened: as §1

[2] = tested on: ducksalad (Heteranthera limosa); experiment: Test B flooded paddy: ducksalad; conditions: Flood; 250 g ai/ha; applied to paddy water at 2-leaf stage; visually evaluated after 13 to 15 days
Procedure, shortened: (§2)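 Visual ratings on a 0–100 scale, where 0 means no effect and 100 means complete control, were assigned by comparison with controls 13 to 15 days after treatment. Compounds went into paddy water over 2-leaf plants flooded to 3 cm.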

[3] = tested on: sedge, umbrella (small-flower umbrella sedge Cyperus difformis); experiment: Test B flooded paddy: sedge, umbrella; conditions: Flood; 250 g ai/ha; applied to paddy water at 2-leaf stage; visually evaluated after 13 to 15 days
Procedure, shortened: as §2

[4] = tested on: morningglory (Ipomoea spp.); experiment: Test A pre-/postemergence: morningglory; conditions: Preemergence
Procedure, shortened: as §1

[5] = tested on: barnyardgrass (Echinochloa crus-galli); experiment: Test A pre-/postemergence: barnyardgrass; conditions: for Barnyardgrass plant response rating: Postemergence; for Plant response rating, Barnyardgrass: Preemergence
Procedure, shortened: as §1

[6] = tested on: velvetleaf (Abutilon theophrasti); experiment: Test A pre-/postemergence: velvetleaf; conditions: for Velvetleaf plant response rating: Postemergence; for Plant response rating, Velvetleaf: Preemergence
Procedure, shortened: as §1

[7] = tested on: pigweed (Amaranthus retroflexus); experiment: Test A pre-/postemergence: pigweed; conditions: for Pigweed plant response rating: Postemergence; for Plant response rating, Pigweed: Preemergence
Procedure, shortened: as §1

[8] = tested on: crabgrass, large (large crabgrass, Digitaria sanguinalis); experiment: Test A pre-/postemergence: crabgrass, large; conditions: for Crabgrass, Large plant response rating: Postemergence; for Plant response rating, Crabgrass, Large: Preemergence
Procedure, shortened: as §1

[9] = tested on: wheat (Triticum aestivum); experiment: Test A pre-/postemergence: wheat; conditions: for Wheat plant response rating: Postemergence; for Plant response rating, Wheat: Preemergence
Procedure, shortened: as §1

[10] = tested on: barnyardgrass (Echinochloa crus-galli); experiment: Test B flooded paddy: barnyardgrass; conditions: Flood; 250 g ai/ha; applied to paddy water at 2-leaf stage; visually evaluated after 13 to 15 days
Procedure, shortened: as §2

[11] = 125 g ai/ha, 0 to 100 scale, 0 is no effect, 100 is complete control
[12] = 500 g ai/ha, visual rating on 0 to 100 scale (0 no effect, 100 complete control), approximately ten days
[13] = 125 g ai/ha, 0 to 100 scale (0 no effect, 100 complete control)
[14] = 500 g ai/ha, 0 to 100 scale, 0 is no effect, 100 is complete control

Compound | Plant response rating, Rice (0 to 100 scale, 0 is no effect, 100 is complete control) (rice (Oryza sativa)) | Corn plant response rating (corn (Zea mays); [11]) | Corn plant response rating (corn (Zea mays); [12]) | Plant response rating, Corn (corn (Zea mays); [13]) | Plant response rating, Corn (corn (Zea mays); [14]) | Foxtail, Giant plant response rating [1, 11] | Foxtail, Giant plant response rating [1, 12] | Plant response rating, Foxtail, Giant [1, 13] | Plant response rating, Foxtail, Giant [1, 14] | Plant response rating, Ducksalad (0 to 100 scale, 0 is no effect, 100 is complete control) [2] | Plant response rating, Sedge, Umbrella (0 to 100 scale, 0 is no effect, 100 is complete control) [3] | Plant response rating, Morningglory [4, 13] | Plant response rating, Morningglory [4, 14] | Barnyardgrass plant response rating [5, 11] | Barnyardgrass plant response rating [5, 12] | Plant response rating, Barnyardgrass [5, 13] | Plant response rating, Barnyardgrass [5, 14] | Velvetleaf plant response rating [6, 11] | Velvetleaf plant response rating [6, 12] | Plant response rating, Velvetleaf [6, 13] | further results
Cc1nn(-c2ccc(Br)cc2)nc1Oc1ccnc(C(F)(F)F)c1 [Compound 53] | 50 | 30 | 40 | 0 | 20 | 90 | 90 | 100 | 100 | 85 | 85 | 30 | 40 | 90 | 90 | 80 | 100 | 80 | 100 | 10 | Plant response rating, Velvetleaf [6, 14]: 50; Pigweed plant response rating [7, 11]: 100; Pigweed plant response rating [7, 12]: 100; Plant response rating, Pigweed [7, 13]: 90; Plant response rating, Pigweed [7, 14]: 100; Crabgrass, Large plant response rating [8, 11]: 90; Crabgrass, Large plant response rating [8, 12]: 90; Plant response rating, Crabgrass, Large [8, 13]: 100; Plant response rating, Crabgrass, Large [8, 14]: 100; Wheat plant response rating [9, 11]: 20; Wheat plant response rating [9, 12]: 30; Plant response rating, Wheat [9, 13]: 10; Plant response rating, Wheat [9, 14]: 30; Plant response rating, Barnyardgrass (0 to 100 scale, 0 is no effect, 100 is complete control) [10]: 60
Cc1nn(-c2ccc(F)c(F)c2)nc1Cc1ccnc(C(F)(F)F)c1 [Compound 55] | 60 | 20 | 50 | 20 | 50 | 90 | 90 | 100 | 100 | 100 | 100 | 50 | 80 | 90 | 90 | 90 | 100 | 100 | 100 | 40 | Plant response rating, Velvetleaf [6, 14]: 70; Pigweed plant response rating [7, 11]: 100; Pigweed plant response rating [7, 12]: 100; Plant response rating, Pigweed [7, 13]: 100; Plant response rating, Pigweed [7, 14]: 100; Crabgrass, Large plant response rating [8, 11]: 80; Crabgrass, Large plant response rating [8, 12]: 90; Plant response rating, Crabgrass, Large [8, 13]: 100; Plant response rating, Crabgrass, Large [8, 14]: 100; Wheat plant response rating [9, 11]: 20; Wheat plant response rating [9, 12]: 40; Plant response rating, Wheat [9, 13]: 10; Plant response rating, Wheat [9, 14]: 40; Plant response rating, Barnyardgrass (0 to 100 scale, 0 is no effect, 100 is complete control) [10]: 70
